# Measurements reported in PMC4878759 (PLoS ONE, 2016).
# Where two headings read alike, the source gives them in different places.
# How the values were obtained:
# VRAC [1] = experiment: VRAC activity by YFP quenching in LN215 cells; type: cell-based, human; conditions: 10 μM
# Procedure: LN215 cells, a human glioma cell line, were stably transfected with YFP-F46L/H148Q/I152L, a halide sensor YFP. After the cells were incubated on 96well black plates (Corning Inc., Corning, NY) for 48 hours, each well of the 96-well plate was washed 3 times in PBS (200 μL/wash), and the wells were filled with 50 μl/well isotonic solution (in mM): 140 NaCl, 5 KCl, 20 HEPES (310 mOsm/kg; pH 7.4 with NaOH). In each well, VRAC expressed on the cells were stimulated with addition of 50 μl of hypotonic solutions (in mM): 5 KCl, 20 HEPES, 90 mannitol (120 mOsm/kg). Test compounds (1 μL) were added to each well in a dose dependent manner. After 5 min, 96-well plates were transferred to a plate reader for fluorescence assay. Each well was assayed individually for VRAC-mediated I^- influx by recording fluorescence continuously (400 ms per point) for 7.6 s. YFP fluorescence was recorded 0.4 s for baseline, then 100 μL of 140 mM I^- solution was added at 0.4 s to see the change in fluorescence. Initial iodide influx rate was determined from the initial slope of fluorescence decrease, by nonlinear regression, following infusion of iodide.
# VRAC [2] = experiment: Whole-cell patch clamp of hypotonicity-induced VRAC currents in LN215 cells; type: cell-based, human; conditions: 10 μM
# From the text: Pipettes were pulled from borosilicate glass and had resistances of 3–5 MΩ after fire polishing. […] The liquid junction potential (~2.4 mV) was not corrected. After establishing the whole-cell configuration, whole-cell capacitance and series resistance were compensated with the amplifier circuitry. […] VRAC was activated by exposing LN215 cells to a 25% hypotonic bath solution.
# ANO1 = tested on: ANO1; parameters: method as in PMID 22526416; conditions: ref [38]; cited from earlier work
# ANO2 = tested on: ANO2; parameters: method as in PMID 22526416; conditions: ref [38]; cited from earlier work
# VRAC [3] = tested on: VRAC; parameters: method as in PMID 24965069, PMID 25163766, PMID 26438191; conditions: ref [26]–[28]; cited from earlier work
# ENaC = target: T1, ENaC (Homo sapiens, UniProt P37088+P51168+P51170); experiment: Short circuit current in T84 cells expressing ENaC; type: cell-based; conditions: 100 μM
# T1 construct: endogenous in cells; host or cells: T84 cells, ENaC induced with 2 mM sodium butyrate for 2 days
# T1 sequence (P37088 1-669): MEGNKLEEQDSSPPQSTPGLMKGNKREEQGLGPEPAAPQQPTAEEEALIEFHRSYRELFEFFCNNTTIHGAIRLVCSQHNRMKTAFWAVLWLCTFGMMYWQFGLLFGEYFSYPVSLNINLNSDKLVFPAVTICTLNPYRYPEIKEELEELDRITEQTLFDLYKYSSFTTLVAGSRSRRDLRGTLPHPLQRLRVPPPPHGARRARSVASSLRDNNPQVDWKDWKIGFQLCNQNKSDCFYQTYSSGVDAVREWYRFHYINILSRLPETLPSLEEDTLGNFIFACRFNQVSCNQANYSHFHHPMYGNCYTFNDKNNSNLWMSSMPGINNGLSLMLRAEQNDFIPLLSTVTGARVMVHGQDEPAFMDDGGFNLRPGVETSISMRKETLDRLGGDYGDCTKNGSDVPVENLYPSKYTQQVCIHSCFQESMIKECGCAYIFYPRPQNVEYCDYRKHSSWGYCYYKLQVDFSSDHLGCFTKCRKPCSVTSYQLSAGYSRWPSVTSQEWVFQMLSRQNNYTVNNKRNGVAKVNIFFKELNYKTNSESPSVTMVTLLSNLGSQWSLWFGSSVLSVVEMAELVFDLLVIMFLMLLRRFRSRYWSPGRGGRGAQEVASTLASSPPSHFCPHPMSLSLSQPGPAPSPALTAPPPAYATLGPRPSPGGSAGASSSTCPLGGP
# T1 sequence (P51168 1-640): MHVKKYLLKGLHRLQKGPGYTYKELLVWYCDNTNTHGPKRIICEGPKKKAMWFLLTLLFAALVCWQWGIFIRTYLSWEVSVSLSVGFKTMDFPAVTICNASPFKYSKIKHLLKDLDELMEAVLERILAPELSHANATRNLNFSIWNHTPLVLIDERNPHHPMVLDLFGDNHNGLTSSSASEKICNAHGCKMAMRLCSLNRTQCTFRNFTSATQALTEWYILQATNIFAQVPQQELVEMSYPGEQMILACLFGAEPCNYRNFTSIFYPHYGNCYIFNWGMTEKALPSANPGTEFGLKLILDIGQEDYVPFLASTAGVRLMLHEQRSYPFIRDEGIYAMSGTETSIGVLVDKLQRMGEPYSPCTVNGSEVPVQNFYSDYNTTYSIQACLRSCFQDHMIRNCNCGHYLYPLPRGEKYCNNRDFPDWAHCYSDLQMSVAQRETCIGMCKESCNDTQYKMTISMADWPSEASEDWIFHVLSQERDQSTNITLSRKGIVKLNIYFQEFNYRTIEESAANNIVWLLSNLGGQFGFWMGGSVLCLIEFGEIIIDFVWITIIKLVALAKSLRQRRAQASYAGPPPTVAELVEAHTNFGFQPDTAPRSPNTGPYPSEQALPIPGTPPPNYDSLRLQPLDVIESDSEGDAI
# T1 sequence (P51170 1-649): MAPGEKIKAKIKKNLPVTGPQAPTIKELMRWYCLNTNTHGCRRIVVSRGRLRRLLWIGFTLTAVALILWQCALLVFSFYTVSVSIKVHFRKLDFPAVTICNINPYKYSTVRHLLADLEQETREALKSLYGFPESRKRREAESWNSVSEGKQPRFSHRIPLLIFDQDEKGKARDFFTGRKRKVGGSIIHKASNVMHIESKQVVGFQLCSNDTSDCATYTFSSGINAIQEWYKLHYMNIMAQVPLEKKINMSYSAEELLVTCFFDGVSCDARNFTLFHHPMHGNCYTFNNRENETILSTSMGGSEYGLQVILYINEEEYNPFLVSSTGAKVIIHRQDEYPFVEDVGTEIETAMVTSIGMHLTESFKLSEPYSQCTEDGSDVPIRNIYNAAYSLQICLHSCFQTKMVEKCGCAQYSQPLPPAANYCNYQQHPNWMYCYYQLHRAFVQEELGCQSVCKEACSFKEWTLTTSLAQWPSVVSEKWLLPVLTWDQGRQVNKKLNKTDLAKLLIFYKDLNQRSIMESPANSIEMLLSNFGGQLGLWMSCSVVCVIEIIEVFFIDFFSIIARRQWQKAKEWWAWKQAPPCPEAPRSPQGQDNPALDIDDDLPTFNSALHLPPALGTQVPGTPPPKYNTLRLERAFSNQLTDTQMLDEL
# Procedure: Snapwell inserts containing ANO1, ANO2 or CFTR expressing FRT cells, ENaC expressing T-84 cells or the human primary airway epithelial cells were mounted in Ussing chambers (Physiologic Instruments, San Diego, CA). To induce transcriptional ENaC induction, the polarized T84 cells were incubated with 2 mM sodium butyrate for 2 days. To increase the functional expression of ANO1, the human airway epithelial cells were treated with IL-4 (10 ng/mL) for 2 days. For T-84 and the human primary airway epithelial cells, the apical and basolateral bath were filled with HCO3^—buffered solution containing (in mM): 120 NaCl, 5 KCl, 1 MgCl2, 1 CaCl2, 10 D-glucose, 2.5 HEPES, and 25 NaHCO3 (pH 7.4). For FRT cells, the basolateral bath was filled with the HCO3^—buffered solution and the apical bath was filled with a half-Cl^- solution. In the half-Cl^- solution 65 mM NaCl in the HCO3^—buffered solution was replaced by Na-gluconate. […] ATP was applied to the apical bath solution to induce intracellular calcium increase. […] Apical membrane currents were measured with an EVC4000 Multi-Channel V/I Clamp (World Precision Instruments, Sarasota, FL) and PowerLab 4/35 (AD Instruments, Castle Hill, Australia). Data were analyzed using Labchart Pro 7 (AD Instruments). The sampling rate was 4 Hz.
# ANO1 was activated by either 10 μM Eact, an ANO1 activator, or 100 μM ATP.
Compound,inhibition of ANO1 (ANO1),inhibition of ANO2 (ANO2),further results
CCCCC1(C2CCCC2)Cc2cc(OCCCC(=O)O)c(Cl)c(Cl)c2C1=O (centres unmarked) [DCPIB],–,–,block of VRAC activity (VRAC [1]): completely blocked; effect on hypotonicity-induced VRAC currents (VRAC [2]): almost completely blocked
"O=C(O)c1cc([N+](=O)[O-])ccc1NCCCc1ccccc1 [NPPB, 5-nitro-2-(3-phenylpropylamino)-benzoic acid]",inhibited,inhibited,block of VRAC activity (VRAC [3]): potently blocked
N=C(N)NC(=O)c1nc(Cl)c(N)nc1N [amiloride],–,–,effect on ENaC channel activity (ENaC): fully blocked
O=C(O)c1cccnc1Nc1cccc(C(F)(F)F)c1 [niflumic acid],inhibited,inhibited,–
